Patent US12351574B2, “Selective ligands for modulation of GIRK channels” (Northeastern University, priority 2018, dated 2025)

Target: T1, GIRK1/2 (UniProt P48542+P48549)
T1 sequence (P48549 1-501): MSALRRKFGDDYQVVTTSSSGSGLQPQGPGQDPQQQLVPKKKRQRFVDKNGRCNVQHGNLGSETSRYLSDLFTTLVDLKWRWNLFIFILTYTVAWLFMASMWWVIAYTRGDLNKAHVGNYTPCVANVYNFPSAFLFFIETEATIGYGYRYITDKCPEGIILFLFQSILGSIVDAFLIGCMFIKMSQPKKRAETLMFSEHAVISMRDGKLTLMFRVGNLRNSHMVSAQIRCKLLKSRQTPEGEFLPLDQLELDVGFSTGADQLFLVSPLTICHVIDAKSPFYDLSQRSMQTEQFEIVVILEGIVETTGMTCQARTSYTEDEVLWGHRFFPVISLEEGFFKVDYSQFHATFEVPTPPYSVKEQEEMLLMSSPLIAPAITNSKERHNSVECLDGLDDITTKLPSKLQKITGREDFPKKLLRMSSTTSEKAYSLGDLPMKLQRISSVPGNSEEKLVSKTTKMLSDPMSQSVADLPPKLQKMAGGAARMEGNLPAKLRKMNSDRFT
T1 sequence (P48542 1-425): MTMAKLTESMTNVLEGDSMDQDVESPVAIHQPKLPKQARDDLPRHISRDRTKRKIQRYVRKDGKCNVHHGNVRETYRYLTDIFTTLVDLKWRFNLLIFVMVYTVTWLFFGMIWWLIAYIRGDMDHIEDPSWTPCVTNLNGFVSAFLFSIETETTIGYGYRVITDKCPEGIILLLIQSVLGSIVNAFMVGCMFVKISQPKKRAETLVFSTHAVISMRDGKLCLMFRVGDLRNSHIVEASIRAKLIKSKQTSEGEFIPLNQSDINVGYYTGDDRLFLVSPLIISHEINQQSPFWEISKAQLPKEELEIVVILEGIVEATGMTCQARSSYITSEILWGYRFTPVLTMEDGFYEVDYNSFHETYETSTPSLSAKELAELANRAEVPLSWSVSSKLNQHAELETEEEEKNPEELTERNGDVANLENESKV
Assay: diC8-PIP2 concentration-response (NPo), inside-out macropatches from Xenopus oocytes, GIRK1/2
Type: cell-based, human GIRK1, mouse GIRK2
Parameters: expressed in transfected cells; host or cells: Xenopus laevis oocytes (cRNA injection)
Conditions: in the presence of 10 μM compound; for EMAX of diC8-PIP2 response (NPo), GIRK1/2: control 5.7±0.3; for apparent affinity of GIRK1/2 channels to diC8-PIP2: control 36±7 μM
Text: The inventors next turned to inside-out macropatches from Xenopus oocytes to compare changes in the PIP2 sensitivity by examining diC8 concentration-responses in the absence and presence of saturating concentrations of each of the activating compounds. […] In FIG. 14B, the control plot overlays the GAT1508 and GAT1521 plots; only ML297 was able to left-shift the sensitivity of GIRK1/4 heteromers to PIP2, while both GAT1508 and GAT1521 were ineffective in changing the sensitivity of these heteromers to PIP2.
Xenopus laevis oocyte expression: Plasmid DNAs of GIRK channel subunits were linearized prior to in vitro transcription. Capped RNAs were transcribed using mMESSAGE mMACHINE T7 Transcription Kit (Thermo Fisher Scientific). Xenopus oocytes were surgically extracted, dissociated and defolliculated by collagenase treatment, and microinjected with 50 nl of a water solution containing 1 ng of each GIRK subunit RNA. For TEVC experiments, oocytes were kept 2 days at 17° C. before recording, while for NPo experiments oocytes were incubated for up to 4 days at 17° C.
Oocyte macropatch studies: Macropatch GIRK channel activity was recorded from devitellinized oocytes under the inside-out mode of standard patch clamp methods using an AM2400 patch clamp amplifier (A-M systems). […] Oocytes were bathed with a solution comprising (in mM): 96 KCl, 5 EGTA, 1 MgATP and 10 HEPES (pH 7.4). Current amplitudes were measured at −80 mV with a sampling rate of 10 kHz. Data were analyzed using WinEDR and Clampfit software (Molecular Devices).

EMAX of diC8-PIP2 response (NPo), GIRK1/2	apparent affinity of GIRK1/2 channels to diC8-PIP2	SMILES
10.5±0.3	5.5 ± 7 µM	Cc1cc(NC(=O)Nc2ccc(Br)s2)n(-c2ccccc2)n1 [GAT1508, 1-(5-bromothiophen-2-yl)-3-(3-methyl-1-phenyl-1H-pyrazol-5-yl)urea]
7.5±0.4	23 ± 5 µM	Cc1cc(NC(=O)Nc2ccc(F)c(F)c2)n(-c2ccccc2)n1 [ML297, reference compound]
9.1±0.2	11 ± 2 µM	Cc1cc(NC(=O)Nc2ccc(C)s2)n(-c2ccccc2)n1 [GAT1521, 1-(3-methyl-1-phenyl-1H-pyrazol-5-yl)-3-(5-methylthiophen-2-yl)urea]
